Counter-ions that a name gives are not always drawn.
What follows are compounds tested on DGAT (assay: DGAT Phospholipid FlashPlate Assay). Settings: DGAT pellet, DAG-coated PL-FlashPlate, 14C-Pal-CoA, 37° C. for 1 hour; read-out: DGAT Inhibition Activity IC50.
Type: biochemical
Protocol: DGAT Phospholipid FlashPlate Assay
Materials for the assay were: PL-FlashPlate: Phospholipid FlashPlates from PerkinElmer, catalog number SMP108; DAG (1,2-Dioleoyl-sn-glycerol) 10 mM suspended in water containing 0.1% Triton X-100; ^14C-Pal-CoA (palmitoyl coenzyme A, [palmitoyl-1-^14C]) from PerkinElmer, catalog number NEC-555 with a specific activity of 55 mCi/mmol; and DGAT pellet, with a protein concentration of 9.85 mg/ml.
Aqueous buffers were prepared or purchased as follows: The coating buffer (CB) was purchased from PerkinElmer, catalog number SMP900A; the reaction buffer (RB) was 50 mM Tris-HCl, pH 7.5, 100 mM NaCl, 0.01% BSA in water; the washing buffer (WB) is 50 mM Tris-HCl, pH 7.5, 100 mM NaCl, 0.05% deoxycholic acid sodium salt in water; the dilution buffer (DB) was 50 mM Tris-HCl, pH 7.5, 100 mM NaCl, 1 mM EDTA, 0.2% Triton X-100 in water.
1,2-Dioleoyl-sn-glycerol (DAG, 10 mmoles) was diluted to 500 μM with coating buffer (CB). The diluted DAG solution was then added to 384-well PL-FlashPlates at 60 μl per well, and incubated at room temperature for 2 days. The coated plates were then washed twice with washing buffer (WB) before use. Test compounds were serial diluted to 2000, 666.7, 222.2, 74.1, 24.7, 8.2, 2.7 and 0.9 μM in 100% DMSO. Diluted compound were further diluted 10 fold with reaction buffer (RB). ^14C-Pal-CoA was diluted to 8.3 μM with RB. The DGAT pellet was diluted to 0.13 mg protein/ml with dilution buffer (DB) immediately before it was added to the PL-FlashPlates to start the reaction. 20 μl of the RB-diluted compounds (or 10% DMSO in RB for Total and Blank), 15 μl of RB diluted 14C-Pal-CoA and 15 μl of DB diluted DGAT pellet (DB without DGAT for Blanks) were transferred to each well of the PL-FlashPlates. The reaction mixtures were incubated at 37° C. for 1 hour. The reactions were stopped by washing 3 times with WB. Plates were sealed with Top-seal and read on a Topcount instrument.
Calculation of IC50: The IC50 values for each compound were generated using an Excel template. The Topcount rpm readings of Total and Blank were used as 0% and 100% inhibition. The percent inhibition values of reactions in the presence of compounds were calculated, and plotted against compound concentrations. All data were fitted into a Dose Response One Site model (4 parameter logistic model) as the following: (A+((B−A)/(1+((x/C)^D)))), with A and B as the bottom and top of the curve (highest and lowest inhibition), respectively, and C as IC50 and D as Hill Coefficient of the compound.

Compound | IC50
CCOC(=O)N1CC[C@H](Nc2ccc(NC(=O)c3cc4c(C)cccc4n3CC)cn2)C1 [Example 53, (S)-3-{5-[(1-Ethyl-4-methyl-1H-indole-2-carbonyl)-amino]-pyridin-2-ylamino}-pyrrolidine-1-carboxylic acid ethyl ester hydrochloride] | 209 nM
CCOC(=O)N1CC[C@H](Nc2ccc(NC(=O)c3cc4c(OC)c(OC)ccc4n3CC)cn2)C1 [Example 54, (S)-3-{5-[(1-Ethyl-4,5-dimethoxy-1H-indole-2-carbonyl)-amino]-pyridin-2-ylamino}pyrrolidine-1-carboxylic acid ethyl ester hydrochloride] | 309 nM
CCOC(=O)N1CC[C@H](Nc2ccc(NC(=O)c3cc4c(OCC)cccc4n3CC)cn2)C1 [Example 55, (S)-3-{5-[(4-Ethoxy-1-ethyl-1H-indole-2-carbonyl)-amino]-pyridin-2-ylamino}-pyrrolidine-1-carboxylic acid ethyl ester hydrochloride] | 414 nM
CCOC(=O)N1CC[C@H](Nc2ccc(NC(=O)c3cc4cc(Cl)ccc4n3CC)cn2)C1 [Example 56, (S)-3-{5-[(5-Chloro-1-ethyl-1H-indole-2-carbonyl)-amino]-pyridin-2-ylamino}-pyrrolidine-1-carboxylic acid ethyl ester] | 671 nM
CCOC(=O)N1CC[C@H](Nc2ccc(NC(=O)c3cc4c(Cl)c(Cl)ccc4n3CC)cn2)C1 [Example 57, (S)-3-{5-[(4,5-Dichloro-1-ethyl-1H-indole-2-carbonyl)-amino]-pyridin-2-ylamino}-pyrrolidine-1-carboxylic acid ethyl ester hydrochloride] | 548 nM
CCn1c(C(=O)Nc2ccc(N[C@H]3CCN(C(=O)NC(C)(C)C)C3)nc2)cc2c(C)cccc21 [Example 58, 1-Ethyl-4-methyl-1H-indole-2-carboxylic acid [6-((8)-1-tert-butylcarbamoyl-pyrrolidin-3-ylamino)-pyridin-3-yl]-amide hydrochloride] | 247 nM
CCn1c(C(=O)Nc2ccc(N3CCN(C(=O)OC(C)(C)C)CC3)cc2)cc2c(Cl)c(Cl)ccc21 [Example 59, 4-{4-[(4,5-Dichloro-1-ethyl-1H-indole-2-carbonyl)-amino]-phenyl}-piperazine-1-carboxylic acid tert-butyl ester] | 821 nM
CCn1c(C(=O)Nc2ccc(N3CCN(C(=O)CC(C)(C)C(=O)O)CC3)cc2)cc2c(Cl)c(Cl)ccc21 [Example 60, 4-(4-{4-[(4,5-Dichloro-1-ethyl-1H-indole-2-carbonyl)-amino]-phenyl}-piperazin-1-yl)-2,2-dimethyl-4-oxo-butyric acid] | 210 nM
CCn1c(C(=O)Nc2ccc(C3CCN(C(=O)CC(C(=O)O)c4ccccc4)CC3)cc2)cc2c(Cl)c(Cl)ccc21 (centres unmarked) [Example 61, 4-(4-{4-[(4,5-Dichloro-1-ethyl-1H-indole-2-carbonyl)-amino]-phenyl}-piperidin-1-yl)-4-oxo-2-phenyl-butyric acid] | 790 nM
CCn1c(C(=O)Nc2ccc(C3CCN(C(=O)CC4(C(=O)O)CCCC4)CC3)cc2)cc2c(Cl)c(Cl)ccc21 [Example 62, 1-[2-(4-{4-[(4,5-Dichloro-1-ethyl-1H-indole-2-carbonyl)-amino]-phenyl}-piperidin-1-yl)-2-oxo-ethyl]-cyclopentanecarboxylic acid] | 240 nM
CCn1c(C(=O)Nc2ccc(N3CCN(C(=O)CC(C(=O)O)C4CCCCC4)CC3)cc2)cc2c(Cl)c(Cl)ccc21 (centres unmarked) [Example 63, 2-Cyclohexyl-4-(4-{4-[(4,5-dichloro-1-ethyl-1H-indole-2-carbonyl)-amino]-phenyl}-piperazin-1-yl)-4-oxo-butyric acid hydrochloride] | 351 nM
CCn1c(C(=O)Nc2ccc(N3CCN(C(=O)CC(C(=O)O)C(C)C)CC3)cc2)cc2c(Cl)c(Cl)ccc21 (centres unmarked) [Example 64, 2-[2-(4-{4-[(4,5-Dichloro-1-ethyl-1H-indole-2-carbonyl)-amino]-phenyl}-piperazin-1-yl)-2-oxo-ethyl]-3-methyl-butyric acid] | 164 nM
CCOc1cccc2c1cc(C(=O)Nc1ccc(O[C@H]3CCN(C(=O)OC(C)(C)C)C3)cc1)n2CC [Example 65, (S)-3-{4-[(4-Ethoxy-1-ethyl-1H-indole-2-carbonyl)-amino]-phenoxy}-pyrrolidine-1-carboxylic acid tert-butyl ester] | 701 nM
CCOc1cccc2c1cc(C(=O)Nc1ccc(O[C@H]3CCN(C(=O)CC(C)(C)C(=O)O)C3)cc1)n2CC [Example 66, 4-((S)-3-{4-[(4-Ethoxy-1-ethyl-1H-indole-2-carbonyl)-amino]-phenoxy}-pyrrolidin-1-yl)-2,2-dimethyl-4-oxo-butyric acid] | 208 nM
CCOc1cccc2c1cc(C(=O)Nc1ccc(O[C@H]3CCN(c4ccc(C(=O)O)cc4)C3)cc1)n2CC [Example 67] | 296 nM
CCOc1cccc2c1cc(C(=O)Nc1ccc(N3CCN(C(=O)CC4SC(=O)NC4=O)CC3)cc1)n2CC (centres unmarked) [Example 68, 4-Ethoxy-1-ethyl-1H-indole-2-carboxylic acid (4-{4-[2-(2,4-dioxo-thiazolidin-5-yl)-acetyl]-piperazin-1-yl}-phenyl)-amide hydrochloride] | 289 nM
CCn1c(C(=O)Nc2ccc(N3CCN(C(=O)CC4SC(=O)NC4=O)CC3)cc2)cc2c(Cl)c(Cl)ccc21 (centres unmarked) [Example 69, 4,5-Dichloro-1-ethyl-1H-indole-2-carboxylic acid (4-{4-[2-(2,4-dioxo-thiazolidin-5-yl)-acetyl]-piperazin-1-yl}-phenyl)-amide] | 236 nM
CCn1c(C(=O)Nc2ccc(N3CCN(c4ccc(C(=O)O)cc4)CC3)cc2)cc2c(Cl)c(Cl)ccc21 [Example 70, 4-(4-{4-[(4,5-Dichloro-1-ethyl-1H-indole-2-carbonyl)-amino]-phenyl}-piperazin-1-yl)-benzoic acid] | 319 nM
COc1cccc2c(C)c(C(=O)Nc3ccc(N4CCN(C(=O)OC(C)(C)C)CC4)cc3)[nH]c12 [Example 71, 4-{4-[(7-Methoxy-3-methyl-1H-indole-2-carbonyl)-amino]-phenyl}-piperazine-1-carboxylic acid tert-butyl ester] | 188 nM
COCCN(C)c1ccc(NC(=O)c2[nH]c3c(OC)cccc3c2C)cn1 [Example 72, 7-Methoxy-3-methyl-1H-indole-2-carboxylic acid {6-[(2-methoxy-ethyl)-methyl-amino]pyridin-3-yl}-amide] | 117 nM
CCOC(=O)N1CCC(Oc2ccc(NC(=O)c3[nH]c4c(OC)cccc4c3C)cc2)C1 (centres unmarked) [Example 73, 3-{4-[(7-Methoxy-3-methyl-1H-indole-2-carbonyl)-amino]-phenoxy}-pyrrolidine-1-carboxylic acid ethyl ester] | 90 nM
COc1cccc2c(C)c(C(=O)Nc3ccc(N4CCN(C(=O)CC(C)(C)C(=O)O)CC4)cc3)[nH]c12 [Example 74, 4-(4-{4-[(7-Methoxy-3-methyl-1H-indole-2-carbonyl)-amino]-phenyl}-piperazin-1-yl)-2,2-dimethyl-4-oxo-butyric acid] | 64 nM
COc1cccc2c(C)c(C(=O)Nc3ccc(N4CCN(C(=O)[C@H]5CCC[C@@H]5C(=O)O)CC4)cc3)[nH]c12 [Example 75, (1S,2S)-2-(4-{4-[(7-Methoxy-3-methyl-1H-indole-2-carbonyl)-amino]-phenyl}-piperazine-1-carbonyl)-cyclopentanecarboxylic acid] | 372 nM
COc1cccc2c(C)c(C(=O)Nc3ccc(N4CCN(C(=O)[C@H]5CC[C@H](C(=O)O)CC5)CC4)cc3)[nH]c12 [Example 76, trans-4-(4-{4-[(7-Methoxy-3-methyl-1H-indole-2-carbonyl)-amino]-phenyl}-piperazine-1-carbonyl)-cyclohexanecarboxylic acid] | 58 nM
COc1cccc2c(C)c(C(=O)Nc3ccc(C4CCN(C(=O)[C@H]5CC[C@H](C(=O)O)CC5)CC4)cc3)[nH]c12 [Example 77, trans-4-(4-{4-[(7-Methoxy-3-methyl-1H-indole-2-carbonyl)-amino]phenyl}-piperidine-1-carbonyl)-cyclohexanecarboxylic acid] | 57 nM
CCOc1ccc2c(C)c(C(=O)Nc3ccc(N4CCN(C(=O)OC(C)(C)C)CC4)cc3)oc2c1OCC [Example 78, 4-{4-[(6,7-Diethoxy-3-methyl-benzofuran-2-carbonyl)-amino]-phenyl}-piperazine-1-carboxylic acid tert-butyl ester] | 848 nM
